Measured values published in the NIST ThermoML archive (doi:10.1016/j.jct.2018.05.027).

Key:
[1] = xn = mol fraction of the nth substance listed; settings: Liquid, Vibrating wire viscometry, x1 = 1
[2] = Liquid

CCC(C)O (centres undefined) [butan-2-ol] + Cc1ccc(C)c(C)c1
viscosity [mPa·s], [1]
Settings | 293.15 K | 298.15 K | 313.15 K | 333.15 K | 353.15 K
100 kPa | 3.767 | 3.102 | 1.839 | 1.007 | 0.6198
1000 kPa | 3.813 | 3.123 | 1.862 | 1.023 | 0.6273
5000 kPa | 3.978 | 3.28 | 1.947 | 1.078 | 0.6577
10000 kPa | 4.235 | 3.462 | 2.041 | 1.133 | 0.6999
20000 kPa | 4.696 | 3.873 | 2.262 | 1.254 | 0.7717
30000 kPa | 5.159 | 4.253 | 2.503 | 1.372 | 0.8354
40000 kPa | 5.693 | 4.697 | 2.734 | 1.491 | 0.9088
50000 kPa | 6.274 | 5.142 | 2.99 | 1.624 | 0.9898
60000 kPa | 6.831 | 5.553 | 3.237 | 1.759 | 1.07
70000 kPa | 7.377 | 6.044 | 3.558 | 1.905 | 1.151
80000 kPa | 8.056 | 6.544 | 3.841 | 2.081 | 1.242
100000 kPa | 9.598 | 7.646 | 4.456 | 2.427 | 1.444
120000 kPa | 11.31 | 9.053 | 5.179 | 2.716 | 1.644
140000 kPa | 13.38 | 10.43 | 5.933 | 3.099 | 1.845

CCC(C)O (centres undefined) [butan-2-ol]
viscosity [mPa·s], [2]
Settings | 293.15 K | 298.15 K | 313.15 K | 333.15 K | 353.15 K
100 kPa, Concentric cylinders viscometry | 3.744 | – | 1.832 | 1.011 | 0.6218
100 kPa, Vibrating wire viscometry | 3.767 | 3.102 | 1.839 | 1.007 | 0.6198
1000 kPa, Vibrating wire viscometry | 3.813 | 3.123 | 1.862 | 1.023 | 0.6273
5000 kPa, Vibrating wire viscometry | 3.978 | 3.28 | 1.947 | 1.078 | 0.6577
10000 kPa, Vibrating wire viscometry | 4.235 | 3.462 | 2.041 | 1.133 | 0.6999
20000 kPa, Vibrating wire viscometry | 4.696 | 3.873 | 2.262 | 1.254 | 0.7717
30000 kPa, Vibrating wire viscometry | 5.159 | 4.253 | 2.503 | 1.372 | 0.8354
40000 kPa, Vibrating wire viscometry | 5.693 | 4.697 | 2.734 | 1.491 | 0.9088
50000 kPa, Vibrating wire viscometry | 6.274 | 5.142 | 2.99 | 1.624 | 0.9898
60000 kPa, Vibrating wire viscometry | 6.831 | 5.553 | 3.237 | 1.759 | 1.07
70000 kPa, Vibrating wire viscometry | 7.377 | 6.044 | 3.558 | 1.905 | 1.151
80000 kPa, Vibrating wire viscometry | 8.056 | 6.544 | 3.841 | 2.081 | 1.242
100000 kPa, Vibrating wire viscometry | 9.598 | 7.646 | 4.456 | 2.427 | 1.444
120000 kPa, Vibrating wire viscometry | 11.31 | 9.053 | 5.179 | 2.716 | 1.644
140000 kPa, Vibrating wire viscometry | 13.38 | 10.43 | 5.933 | 3.099 | 1.845
